Assay results as given in patent US6635641B2 (Agouron Pharmaceuticals, Inc., priority 2000, dated 2003).
Like-named read-outs stand apart in the source and are kept apart here.

Experiments:
[1] = biological target: T1, unphosphorylated VEGF-R2Δ50 (FLVK) (Homo sapiens, UniProt P35968, DEL940-989/E990V); assay: VEGF-R2 coupled spectrophotometric assay, unphosphorylated construct (FLVK); type: biochemical;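 also: Baculovirus-expressed cytosolic kinase domain, ADP formation linked via pyruvate kinase and lactate dehydrogenase to NADH oxidation, read as falling absorbance at 340 nm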
T1 construct: VEGF-R2Δ50 contains residues 806-939 and 990-1171; made in house; host or cells: baculovirus/insect cells
Protocol: A construct (VEGF-R2Δ50) of the cytosolic domain of human vascular endothelial growth factor receptor 2 (VEGF-R2) lacking the 50 central residues of the 68 residues of the kinase insert domain was expressed in a baculovirus/insect cell system. […] Autophosphorylation of the purified construct was performed by incubation of the enzyme at a concentration of 4 μM in the presence of 3 mM ATP and 40 mM MgCl2 in 100 mM Hepes, pH 7.5, containing 5% glycerol and 5 mM DTT, at 4° C. for 2 h.

[2] = system: human umbilical vein endothelial cells (HUVEC); assay: HUVEC proliferation assay (VEGF-stimulated, MTT); type: cell-based; conditions: Homo sapiens
Outline: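 Proliferation measured by MTT reduction (4 h exposure, absorbance at 595) 72 hours after VEGF stimulation (final 6 ng/ml). Compound added to 24 h-starved HUVEC in F12K with 1% FBS and 0.1% final DMSO, one hour before the growth factor.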

[3] = system: lung cancer cells (line MV522); assay: Cancer cell proliferation (MV522) assay (MTT); type: cell-based
Outline: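 Proliferation was read by MTT reduction 72 h after compound addition, in a 4-day protocol with no starvation step. Two thousand MV522 cells were seeded in RPMI1640 with 10% FBS and 2 mM glutamine and given 1 day to attach before dosing.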

[4] = biological target: T2, FGF-R1 intracellular kinase domain (Homo sapiens, UniProt P11362, C488A/C584S/L457V); assay: FGF-R spectrophotometric assay; type: biochemical; conditions: for inhibition at 1 µM: read-out: FGF-P percent inhibition
T2 construct: starting from the endogenous methionine residue 456 to glutamate 766; made in house; host or cells: baculovirus expression system
Text: The intracellular kinase domain of human FGF-R1 was expressed using the baculovirus vector expression system starting from the endogenous methionine residue 456 to glutamate 766, according to the residue numbering system of Mohammadi et al., Mol. Cell.
The production of ADP from ATP that accompanies phosphoryl transfer was coupled to oxidation of NADH using phosphoenolpyruvate (PEP) and a system having pyruvate kinase (PK) and lactic dehydrogenase (LDH). The oxidation of NADH was monitored by following the decrease of absorbance at 340 nm (e340=6.22 cm^−1 mM^−1) using a Beckman DU 650 spectrophotometer. […] Assays were initiated with 5 to 40 nM of enzyme. Ki values were determined by measuring enzyme activity in the presence of varying concentrations of test compounds. The data were analyzed using Enzyme Kinetic and Kaleidagraph software.
The spectrophotometric assay was carried out as described above for VEGF-R2, except for the following changes in concentration: FGF-R=50 nM, ATP=2 mM, and poly(E4Y1)=15 mM.

[5] = biological target: T3, TEK/Tie-2 intracellular kinase domain (Homo sapiens, UniProt Q02763); assay: TEK/Tie-2 spectrophotometric assay; type: biochemical; conditions: read-out: TEK-P percent inhibition
T3 construct: residues 775 to 1124, with methionine added at the N-terminus; made in house; host or cells: baculovirus expression system
Protocol: The intracellular kinase domain (residues 775 to 1124, with methionine added at the N-terminus) of human TEK/Tie-2 was expressed using the baculovirus vector expression system. For assay purposes, the enzyme was autophosphorylated prior to use by incubation overnight at 4° C., at 10 μM enzyme concentration, with 4 mM ATP, 40 mM MgCl2, and 5 mM DTT in 200 mM Hepes buffer at ph 7.5, in 90:10 water:glycerol.
The production of ADP from ATP that accompanies phosphoryl transfer was coupled to oxidation of NADH using phosphoenolpyruvate (PEP) and a system having pyruvate kinase (PK) and lactic dehydrogenase (LDH). The oxidation of NADH was monitored by following the decrease of absorbance at 340 nm (e340=6.22 cm^−1 mM^−1) using a Beckman DU 650 spectrophotometer. Assay conditions for phosphorylated VEGF-R2Δ50 (indicated as FLVK-P in the tables below) were the following: 1 mM PEP; 250 μM NADH; 50 units of LDH/mL; 20 units of PK/mL; 5 mM DTT; 5.1 mM poly(E4Y1); 1 mM ATP; and 25 mM MgCl2 in 200 mM Hepes, pH 7.5. Assay conditions for unphosphorylated VEGF-R2Δ50 (indicated as FLVK in the tables) were the following: 1 mM PEP; 250 μM NADH; 50 units of LDH/mL; 20 units of PK/mL; 5 mM DTT; 20 mM poly(E4Y1); 3 mM ATP; and 60 mM MgCl2 and 2 mM MnCl2 in 200 mM Hepes, pH 7.5. Assays were initiated with 5 to 40 nM of enzyme. Ki values were determined by measuring enzyme activity in the presence of varying concentrations of test compounds. The data were analyzed using Enzyme Kinetic and Kaleidagraph software.
The spectrophotometric assay was carried out as described above for VEGF-R2, except for the following changes in concentration: TEK/Tie-2=200 nM, MgCl2=40 mM, and ATP=2 mM.

LCK tyrosine kinase = biological target: T4, LCK tyrosine kinase (Homo sapiens, UniProt P06239, C224D/P223M); assay: LCK spectrophotometric assay; type: biochemical; conditions: for inhibition at 1 µM: read-out: LCK-P percent inhibition; for Ki: read-out: LCK-P Ki;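 as to all read-outs here: recombinant LCK kinase activity on poly(E4Y1), ADP formation coupled through PK/LDH to NADH oxidation, followed as absorbance loss at 340 nm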
T4 construct: starting from amino acid residue 223 to the end of the protein at residue 509; made in house; host or cells: insect cells

[6] = biological target: T5, phosphorylated VEGF-R2Δ50 (FLVK-P) (Homo sapiens, UniProt P35968, DEL940-989/E990V); assay: VEGF-R2 coupled spectrophotometric assay, phosphorylated construct (FLVK-P); type: biochemical
T5 construct: VEGF-R2Δ50 contains residues 806-939 and 990-1171; made in house; host or cells: baculovirus/insect cells
Outline: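 Continuous PK/LDH-coupled spectrophotometric read (NADH loss at 340 nm) with 5–40 nM enzyme in 200 mM Hepes pH 7.5. Phosphorylated construct run at 1 mM ATP, 25 mM MgCl2, 5.1 mM poly(E4Y1); unphosphorylated at 3 mM ATP, 60 mM MgCl2 plus 2 mM MnCl2, 20 mM poly(E4Y1). Ki values derived from varied inhibitor concentrations.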

[7] = HUVEC, with albumin, read-out: Huvec + Albumin IC50
[8] = unphosphorylated VEGF-R2 construct
[9] = HUVEC proliferation with albumin, read-out: Huvec + Albumin IC50
[10] = VEGF-stimulated HUVEC proliferation, read-out: HUVEC IC50

T2 sequence (P11362 456-766 L457V/C488A/C584S): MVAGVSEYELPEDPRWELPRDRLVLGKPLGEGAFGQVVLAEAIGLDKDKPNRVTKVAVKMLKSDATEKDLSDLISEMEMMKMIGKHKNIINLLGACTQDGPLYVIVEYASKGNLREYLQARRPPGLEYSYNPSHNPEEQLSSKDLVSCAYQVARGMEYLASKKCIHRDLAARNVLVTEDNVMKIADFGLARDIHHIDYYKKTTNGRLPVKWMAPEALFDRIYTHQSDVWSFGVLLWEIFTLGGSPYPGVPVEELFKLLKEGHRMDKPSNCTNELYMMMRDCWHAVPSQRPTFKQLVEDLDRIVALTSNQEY
T4 sequence (P06239 223-509 P223M/C224D): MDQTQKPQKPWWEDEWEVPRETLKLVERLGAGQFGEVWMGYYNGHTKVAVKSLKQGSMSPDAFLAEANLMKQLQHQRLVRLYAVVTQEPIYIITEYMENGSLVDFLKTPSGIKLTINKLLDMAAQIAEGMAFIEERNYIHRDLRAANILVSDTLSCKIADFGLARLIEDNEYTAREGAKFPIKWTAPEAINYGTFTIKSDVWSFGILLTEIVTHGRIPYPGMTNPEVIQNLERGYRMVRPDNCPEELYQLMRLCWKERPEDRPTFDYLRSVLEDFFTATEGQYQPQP
T3 sequence (Q02763 775-1124): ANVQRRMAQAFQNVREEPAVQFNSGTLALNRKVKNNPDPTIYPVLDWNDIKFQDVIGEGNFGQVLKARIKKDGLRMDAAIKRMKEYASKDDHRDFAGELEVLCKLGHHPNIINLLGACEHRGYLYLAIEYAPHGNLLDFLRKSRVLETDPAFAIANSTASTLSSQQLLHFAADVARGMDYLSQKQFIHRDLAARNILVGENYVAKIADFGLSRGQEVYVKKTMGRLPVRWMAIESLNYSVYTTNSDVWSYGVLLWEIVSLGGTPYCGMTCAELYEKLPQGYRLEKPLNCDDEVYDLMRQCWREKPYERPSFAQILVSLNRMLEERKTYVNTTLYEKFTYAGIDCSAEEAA
T5 sequence (P35968 with tags, fused parts or gaps DEL940-989/E990V limits assumed): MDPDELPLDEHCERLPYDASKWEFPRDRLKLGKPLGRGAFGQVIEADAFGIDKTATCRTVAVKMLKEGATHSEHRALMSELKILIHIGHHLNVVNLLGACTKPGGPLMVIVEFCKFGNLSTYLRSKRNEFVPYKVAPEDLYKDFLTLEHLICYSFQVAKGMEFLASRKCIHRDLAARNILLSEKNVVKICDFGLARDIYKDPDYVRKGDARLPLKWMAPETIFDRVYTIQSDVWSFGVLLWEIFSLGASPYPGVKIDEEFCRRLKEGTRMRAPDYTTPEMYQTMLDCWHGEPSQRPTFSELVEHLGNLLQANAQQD
T1 sequence (P35968 with tags, fused parts or gaps DEL940-989/E990V limits assumed): as above

Structure (SMILES)	Ki [1] [nM]	IC50 ([2]; HUVEC, read-out: HUVEC IC50) [nM]	IC50 [2, 7] [nM]	IC50 ([3]; MV522) [µM]	inhibition at 1 µM [4] [%]	inhibition at 1 µM [5] [%]	inhibition at 1 µM (LCK tyrosine kinase) [%]	Ki [6] [nM]	melting point [°C]	Ki (LCK tyrosine kinase) [nM]	Ki ([4]; read-out: FGF-P Ki) [nM]	inhibition at 0.05 µM ([1]; @ 50 nM, read-out: FLVK percent inhibition) [%]	Ki [1, 8] [nM]	IC50 [2, 9] [nM]	IC50 [2, 10] [nM]	IC50 ([3]; MV522 lung cancer cells) [µM]
O=C(Nc1ccc(N2CCNCC2)c(C(F)(F)F)c1)c1cccc(CCc2cc(/C=C/c3cccnc3)n[nH]2)c1 [Example F-5]	0.86	4.1	17	1.4	69	56	84	–	–	–	–	–	–	–	–	–
Cc1cc(NC(=O)c2cccc(CCc3cc(Nc4ccccc4)n[nH]3)c2)ccc1C(C)C [Example G-3, N-(4-isopropyl-3-methylphenyl)-3-[2-(5-phenylamino-2H-pyrazol-3-yl)ethyl]benzamide]	–	9.8	280	> 10	91	–	–	0.197	150 to 151	11.2	–	–	–	–	–	–
COc1ccc(Nc2cc(CCc3cccc(C(=O)Nc4ccc(N(C)C)c(C(F)(F)F)c4)c3)[nH]n2)cn1 [Example G-5, N-(4-Dimethylamino-3-trifluoromethylphenyl)-3-{2-[5-(6-methoxypyridin-3-yl)amino-2H-pyrazol-3-yl]ethyl}-benzamide]	0.35	8.4	–	> 10	68	–	–	1.86	–	69	–	–	–	–	–	–
COc1ccc(Nc2cc(CCc3cccc(C(=O)Nc4ccc(N5CCNCC5)c(C(F)(F)F)c4)c3)[nH]n2)cn1 [Example G-10]	3	5.7	180	5.1	33	–	48	2.6	–	–	–	–	–	–	–	–
Cc1cc(NC(=O)c2cccc(C3CC3c3cc(Nc4ccccc4)n[nH]3)c2)ccc1C(C)C (centres unmarked) [Example H-1, N-(4-Isopropyl-3-methyl-phenyl)-3-[2-(5-phenylamino-2-H-pyrazol-3-yl)cyclopropyl]-benzamide]	0.19	27	–	> 10	83	–	41	1.19	–	–	–	–	–	–	–	–
COc1ccc(Nc2cc(COc3cc(C(=O)Nc4ccc(N5CCCC5)c(C(F)(F)F)c4)ccc3F)[nH]n2)cn1 [Example J-2, 4-Fluoro-3-[5-(6-methoxy-pyridin-3-yl)amino-2H-pyrazol-3-yl]methoxy-N-(4-pyrrolidin-1-yl-3-trifluoromethyl-phenyl)-benzamide]	0.68	26	180	> 10	–	17	–	–	–	10.5	57	–	–	–	–	–
Cc1cc(NC(=O)c2cccc(OCc3cncc4ccccc34)c2)ccc1C(C)C [Example K-1, N-(4-Isopropyl-3-methyl-phenyl)-3-(Isoquinolin-4-yl)methoxy-benzamide]	1.6	40	> 1000	10	79	–	–	1.46	–	59	–	–	–	–	–	–
O=C(Nc1cc(Cl)c(N2CCCC2)c(Cl)c1)c1ccc(F)c(OCc2cccnc2)c1 [Example R-11, N-(3,5-Dichloro-4-pyrrolidin-1-yl-phenyl)-4-fluoro-3-(pyridin-3-ylmethoxy)-benzamide]	–	31	–	–	30	–	59	–	163 to 167	–	–	59	–	–	–	–
O=C(Nc1ccc(N2CCOCC2)c(C(F)(F)F)c1)c1ccc(F)c(OCc2cccnc2)c1 [Example R-12, 4-Fluoro-N-(4-morpholin-4-yl-3-trifluoromethyl-phenyl)-3-(pyridin-3-ylmethoxy)-benzamide]	4.4	15	–	5.9	62	–	45	–	160 to 161	–	–	–	–	–	–	–
O=C(Nc1ccc(N2CCNCC2)c(C(F)(F)F)c1)c1ccc(F)c(OCc2cccnc2)c1 [Example R-13, 4-Fluoro-N-[4-(piperazin-1-yl)-3-trifluoromethylphenyl]-3-(pyridin-3-yl)methoxybenzamide]	16.5	19	120	1.8	7	–	5	–	123 to 131	–	–	–	–	–	–	–
Cl.O=C(Nc1ccc(N2CCOCC2)c(C(F)(F)F)c1)c1ccc(F)c(OCc2cncc3ccccc23)c1 [Example R-14, 4-Fluoro-N-(4-morpholin-4-yl-3-trifluoromethyl-phenyl)-3-(isoquinolin-4-ylmethoxy)-benzamide]	3.4	14	345	5.7	96	–	87	–	175 to 180	–	–	–	–	–	–	–
CC(C)(C)c1cc(C(=O)Nc2cccc(CSc3ncnc4[nH]ncc34)c2)ccc1O [Example V-4, N-{3-[(1H-pyrazolo[3,4-d]-pyrimidin-4-yl)sulfanylmethyl]phenyl}-(4-hydroxy-3-t-butyl)benzamide]	–	–	–	–	37	40	22	–	–	–	–	–	0.045	> 1000	27	–
CC(C)(C)c1cc(C(=O)Nc2cccc(SCc3cccnc3)c2)ccc1O [Example W-2, 3-t-Butyl-4-hydroxy-N-[3-(pyridin-3-ylmethylsulfanyl)-phenyl]-benzamide]	–	–	–	–	18	–	19	–	95 to 100	–	–	–	1.5	–	120	–
CC(C)(C)c1cc(C(=O)Nc2cccc(SCc3cncc4ccccc34)c2)ccc1O.Cl [Example W-3, 3-t-Butyl-4-hydroxy-N-[3-(isoquinolin-4-ylmethylsulfanyl)-phenyl]-benzamide]	–	–	–	–	56	–	65	–	205 to 210	–	–	–	0.7	–	220	–
CC(C)(C)c1cc(C(=O)Nc2cccc(OCc3cncc(Br)c3)c2)ccc1O [Example X-1, N-[3-(5-Bromo-pyridin-3-ylmethoxy)-phenyl]-3-t-butyl-4-hydroxy-benzamide]	–	–	–	–	28	–	59	–	105 to 111	–	–	–	1.5	330	27	–
CC(C)(C)c1cc(C(=O)Nc2cccc(OCc3cccnc3)c2)ccc1O [Example X-4, 3-t-Butyl-4-hydroxy-N-[3-(pyridin-3-ylmethoxy)-phenyl]-benzamide]	–	–	–	–	11	–	11	–	104 to 107	–	–	–	4.1	> 1000	71	6.1
